Experimental data published in patent US10004701B2, “Methods and compositions for treating infection” (UNIVERSITY OF ROCHESTER, priority 2012, dated 2018).
Where a name gives a salt, the structure may show the parent alone. Read-outs that look alike come from different tables or passages of the source.

Legend:
Assay in all cases: AK assay 384-well format, Prestwick library screening
E. faecium = type: cell-based, Enterococcus faecium; details: 50 μM final drug concentration; for fold induction at 50 µM: Enterococcus faecium, 3 h; for AK-based Prestwick Library Screening Results, E. faecium (increase in extracellular AK activity): 384-well format
[1] = test system: S. aureus strain USA300-0114; type: cell-based, Staphylococcus aureus; details: 50 μM final drug concentration; for fold induction at 50 µM: Staphylococcus aureus, USA300, 3 h; for AK-based Prestwick Library Screening Results, S. aureus (increase in extracellular AK activity): 384-well format
E. cloacae = type: cell-based, Enterobacter cloacae; details: 50 μM final drug concentration; for fold induction at 50 µM: Enterobacter cloacae, 3 h; for AK-based Prestwick Library Screening Results, E. cloacae (increase in extracellular AK activity): 384-well format
K. pneumoniae = type: cell-based, Klebsiella pneumoniae; details: 50 μM final drug concentration; for fold induction at 50 µM: Klebsiella pneumoniae, 3 h; for AK-based Prestwick Library Screening Results, K. pneumoniae (increase in extracellular AK activity): 384-well format
P. aeruginosa = type: cell-based, Pseudomonas aeruginosa; details: 50 μM final drug concentration; for fold induction at 50 µM: Pseudomonas aeruginosa, 3 h; for AK-based Prestwick Library Screening Results, P. aeruginosa (increase in extracellular AK activity): 384-well format
[2] = test system: A. baumannii strain 98-37-09; type: cell-based, Acinetobacter baumannii; details: 50 μM final drug concentration; for fold induction at 50 µM: Acinetobacter baumannii, 983709, 3 h; for AK-based Prestwick Library Screening Results, A. baumannii (increase in extracellular AK activity): 384-well format
E. coli = type: cell-based, Escherichia coli; details: 50 μM final drug concentration; for fold induction at 50 µM: Escherichia coli, 3 h; for AK-based Prestwick Library Screening Results, E. coli (increase in extracellular AK activity): 384-well format
[3] = planktonic, cutoff for positive-scoring molecules 3-fold increase, read-out: AK-based Prestwick Library Screening Results, E. faecium (fold increase in extracellular AK activity)
[4] = planktonic, cutoff for positive-scoring molecules 3-fold increase, read-out: AK-based Prestwick Library Screening Results, S. aureus (fold increase in extracellular AK activity)
[5] = planktonic, cutoff for positive-scoring molecules 3-fold increase, read-out: AK-based Prestwick Library Screening Results, E. cloacae (fold increase in extracellular AK activity)
[6] = planktonic, cutoff for positive-scoring molecules 3-fold increase, read-out: AK-based Prestwick Library Screening Results, K. pneumoniae (fold increase in extracellular AK activity)
[7] = planktonic, cutoff for positive-scoring molecules 3-fold increase, read-out: AK-based Prestwick Library Screening Results, P. aeruginosa (fold increase in extracellular AK activity)
[8] = planktonic, cutoff for positive-scoring molecules 3-fold increase, read-out: AK-based Prestwick Library Screening Results, A. baumannii (fold increase in extracellular AK activity)
[9] = planktonic, cutoff for positive-scoring molecules 3-fold increase, read-out: AK-based Prestwick Library Screening Results, E. coli (fold increase in extracellular AK activity)
[10] = planktonic, cutoff for positive-scoring molecules 3-fold increase
[11] = cutoff for positive-scoring molecules 3-fold increase
[12] = planktonic, cutoff for positive 3-fold increase

Compound `Cn1nnnc1SCC1=C(C(=O)O)N2C(=O)[C@@H](NC(=O)[C@H](O)c3ccccc3)[C@H]2SC1` [Cefamandole sodium salt] has a fold induction at 50 µM (E. faecium; [3]) of 0.9, a fold induction at 50 µM [1, 4] of 1.3 and a fold induction at 50 µM (E. cloacae; [5]) of 0.9. The fold induction at 50 µM (K. pneumoniae; [6]) was 2.3, the fold induction at 50 µM (P. aeruginosa; [7]) was 0.7 and the fold induction at 50 µM [2, 8] was 0.6. It also gave a fold induction at 50 µM (E. coli; [9]) of 10.5.

Foliosidine was tested, and the “AK-based Prestwick Library Screening Results, E. faecium (fold increase in extracellular AK activity)” value (E. faecium; [10]) was 0.9, the “AK-based Prestwick Library Screening Results, S. aureus (fold increase in extracellular AK activity)” value [1, 10] was 0.7 and the “AK-based Prestwick Library Screening Results, E. cloacae (fold increase in extracellular AK activity)” value (E. cloacae; [10]) was 1.0. The “AK-based Prestwick Library Screening Results, K. pneumoniae (fold increase in extracellular AK activity)” value (K. pneumoniae; [10]) was 0.8, the “AK-based Prestwick Library Screening Results, P. aeruginosa (fold increase in extracellular AK activity)” value (P. aeruginosa; [10]) was 0.8 and the “AK-based Prestwick Library Screening Results, A. baumannii (fold increase in extracellular AK activity)” value [2, 10] was 0.8. For the same compound, the “AK-based Prestwick Library Screening Results, E. coli (fold increase in extracellular AK activity)” value (E. coli; planktonic, […]) was 0.9.

With `CCC(C)(CN(C)C)OC(=O)c1ccccc1.Cl` (stereo not shown) [Amyleine hydrochloride] the “AK-based Prestwick Library Screening Results, E. faecium (increase in extracellular AK activity)” value (E. faecium; […]) was 1.1, the “AK-based Prestwick Library Screening Results, S. aureus (increase in extracellular AK activity)” value ([1]; […]) was 1.1 and the “AK-based Prestwick Library Screening Results, E. cloacae (increase in extracellular AK activity)” value (E. cloacae; […]) was 1.2. The “AK-based Prestwick Library Screening Results, K. pneumoniae (increase in extracellular AK activity)” value (K. pneumoniae; […]) was 0.8, the “AK-based Prestwick Library Screening Results, P. aeruginosa (increase in extracellular AK activity)” value (P. aeruginosa; […]) was 0.9 and the “AK-based Prestwick Library Screening Results, A. baumannii (increase in extracellular AK activity)” value ([2]; […]) was 1.1. For the same compound, the “AK-based Prestwick Library Screening Results, E. coli (increase in extracellular AK activity)” value (E. coli; […]) was 1.4.

Work on `CN(C)c1nc(N(C)C)nc(N(C)C)n1` [Altretamine] yielded a fold induction at 50 µM (E. faecium; cutoff for positive-scoring molecules 3-fold increase, read-out: AK-based Prestwick Library Screening Results, E. faecium (fold increase in extracellular AK activity)) of 1, a fold induction at 50 µM ([1]; cutoff for positive-scoring molecules 3-fold increase, read-out: AK-based Prestwick Library Screening Results, S. aureus (fold increase in extracellular AK activity)) of 1.1 and a fold induction at 50 µM (E. cloacae; cutoff for positive-scoring molecules 3-fold increase, read-out: AK-based Prestwick Library Screening Results, E. cloacae (fold increase in extracellular AK activity)) of 1.4. The fold induction at 50 µM (K. pneumoniae; cutoff for positive-scoring molecules 3-fold increase, read-out: AK-based Prestwick Library Screening Results, K. pneumoniae (fold increase in extracellular AK activity)) was 1, the fold induction at 50 µM (P. aeruginosa; cutoff for positive-scoring molecules 3-fold increase, read-out: AK-based Prestwick Library Screening Results, P. aeruginosa (fold increase in extracellular AK activity)) was 1.2 and the fold induction at 50 µM ([2]; cutoff for positive-scoring molecules 3-fold increase, read-out: AK-based Prestwick Library Screening Results, A. baumannii (fold increase in extracellular AK activity)) was 1.3. The fold induction at 50 µM (E. coli; cutoff for positive-scoring molecules 3-fold increase, read-out: AK-based Prestwick Library Screening Results, E. coli (fold increase in extracellular AK activity)) was 1.3.

`Nc1ccc(/N=N/c2ccccc2)c(N)n1` [Phenazopyridine hydrochloride] showed a fold induction at 50 µM (E. faecium; [3]) of 0.1, a fold induction at 50 µM [1, 4] of 0.3 and a fold induction at 50 µM (E. cloacae; [5]) of 1.4. It also gave a fold induction at 50 µM (K. pneumoniae; [6]) of 0.1, a fold induction at 50 µM (P. aeruginosa; [7]) of 0.1 and a fold induction at 50 µM [2, 8] of 0.1. It also gave a fold induction at 50 µM (E. coli; [9]) of 0.1.

`CNCC(O)c1ccc(O)c(OC)c1.Cl` (stereo not drawn) [Metanephrine hydrochloride DL] was tested, and the “AK-based Prestwick Library Screening Results, E. faecium (increase in extracellular AK activity)” value (E. faecium; [11]) was 1.0, the “AK-based Prestwick Library Screening Results, S. aureus (increase in extracellular AK activity)” value [1, 11] was 1.2 and the “AK-based Prestwick Library Screening Results, E. cloacae (increase in extracellular AK activity)” value (E. cloacae; [11]) was 1.3. For the same compound, the “AK-based Prestwick Library Screening Results, K. pneumoniae (increase in extracellular AK activity)” value (K. pneumoniae; [11]) was 1.0, the “AK-based Prestwick Library Screening Results, P. aeruginosa (increase in extracellular AK activity)” value (P. aeruginosa; [11]) was 1.1 and the “AK-based Prestwick Library Screening Results, A. baumannii (increase in extracellular AK activity)” value [2, 11] was 1.1. For the same compound, the “AK-based Prestwick Library Screening Results, E. coli (increase in extracellular AK activity)” value (E. coli; [11]) was 1.3.

In the case of `COc1cc2c(cc1O)C[C@H]1c3c(cc(O)c(OC)c3-2)CCN1C` [Boldine], the fold induction at 50 µM (E. faecium; planktonic E. faecium, […], read-out: AK-based Prestwick Library Screening Results, E. faecium (increase in extracellular AK activity)) is reported as 0.9, the fold induction at 50 µM ([1]; planktonic S. aureus, […], read-out: AK-based Prestwick Library Screening Results, S. aureus (increase in extracellular AK activity)) is reported as 0.8 and the fold induction at 50 µM (E. cloacae; planktonic E. cloacae, […], read-out: AK-based Prestwick Library Screening Results, E. cloacae (increase in extracellular AK activity)) is reported as 1.2. It also gave a fold induction at 50 µM (K. pneumoniae; planktonic K. pneumoniae, […], read-out: AK-based Prestwick Library Screening Results, K. pneumoniae (increase in extracellular AK activity)) of 0.7, a fold induction at 50 µM (P. aeruginosa; planktonic P. aeruginosa, […], read-out: AK-based Prestwick Library Screening Results, P. aeruginosa (increase in extracellular AK activity)) of 0.9 and a fold induction at 50 µM ([2]; planktonic A. baumannii, […], read-out: AK-based Prestwick Library Screening Results, A. baumannii (increase in extracellular AK activity)) of 0.8. It also gave a fold induction at 50 µM (E. coli; planktonic E. coli, […], read-out: AK-based Prestwick Library Screening Results, E. coli (increase in extracellular AK activity)) of 0.9.

In the case of `CCN(CCCCOC(=O)c1ccc(OC)c(OC)c1)C(C)Cc1ccc(OC)cc1` (stereo not shown) [Mebeverine hydrochloride], the fold induction at 50 µM (E. faecium; planktonic E. faecium, 384-well, cutoff for positive-scoring molecules 3-fold increase, read-out: AK-based Prestwick Library Screening Results: E. faecium (increase in extracellular AK activity)) is reported as 1, the fold induction at 50 µM ([1]; planktonic S. aureus, 384-well, cutoff for positive-scoring molecules 3-fold increase, read-out: AK-based Prestwick Library Screening Results: S. aureus (increase in extracellular AK activity)) is reported as 1.1 and the fold induction at 50 µM (E. cloacae; planktonic E. cloacae, 384-well, cutoff for positive-scoring molecules 3-fold increase, read-out: AK-based Prestwick Library Screening Results: E. cloacae (increase in extracellular AK activity)) is reported as 1.3. For the same compound, the fold induction at 50 µM (K. pneumoniae; planktonic K. pneumoniae, 384-well, cutoff for positive-scoring molecules 3-fold increase, read-out: AK-based Prestwick Library Screening Results: K. pneumoniae (increase in extracellular AK activity)) was 1, the fold induction at 50 µM (P. aeruginosa; planktonic P. aeruginosa, 384-well, cutoff for positive-scoring molecules 3-fold increase, read-out: AK-based Prestwick Library Screening Results: P. aeruginosa (increase in extracellular AK activity)) was 1.1 and the fold induction at 50 µM ([2]; planktonic A. baumannii, 384-well, cutoff for positive-scoring molecules 3-fold increase, read-out: AK-based Prestwick Library Screening Results: A. baumannii (increase in extracellular AK activity)) was 1.4. For the same compound, the fold induction at 50 µM (E. coli; planktonic E. coli, 384-well, cutoff for positive-scoring molecules 3-fold increase, read-out: AK-based Prestwick Library Screening Results: E. coli (increase in extracellular AK activity)) was 1.3.

`C[N+]1(C)CCC[C@H]1C(=O)[O-].Cl` [Stachydrine hydrochloride] was tested, and the “AK-based Prestwick Library Screening Results, E. faecium (fold increase in extracellular AK activity)” value (E. faecium; [12]) was 1.0, the “AK-based Prestwick Library Screening Results, S. aureus (fold increase in extracellular AK activity)” value [1, 12] was 1.0 and the “AK-based Prestwick Library Screening Results, E. cloacae (fold increase in extracellular AK activity)” value (E. cloacae; [12]) was 1.5. The “AK-based Prestwick Library Screening Results, K. pneumoniae (fold increase in extracellular AK activity)” value (K. pneumoniae; [12]) was 1.1, the “AK-based Prestwick Library Screening Results, P. aeruginosa (fold increase in extracellular AK activity)” value (P. aeruginosa; [12]) was 1.2 and the “AK-based Prestwick Library Screening Results, A. baumannii (fold increase in extracellular AK activity)” value [2, 12] was 1.4. The “AK-based Prestwick Library Screening Results, E. coli (fold increase in extracellular AK activity)” value (E. coli; [12]) was 1.4.

Compound `O=C1C=CC(=O)c2c1ccc1c2ccc2ccccc21` [Chrysene-1,4-quinone] has a fold induction at 50 µM (E. faecium; planktonic, […], read-out: AK-based Prestwick Library Screening Results, E. faecium (fold increase in extracellular AK activity)) of 0.9, a fold induction at 50 µM ([1]; planktonic, […], read-out: AK-based Prestwick Library Screening Results, S. aureus (fold increase in extracellular AK activity)) of 0.1 and a fold induction at 50 µM (E. cloacae; planktonic, […], read-out: AK-based Prestwick Library Screening Results, E. cloacae (fold increase in extracellular AK activity)) of 1.4. It also gave a fold induction at 50 µM (K. pneumoniae; planktonic, […], read-out: AK-based Prestwick Library Screening Results, K. pneumoniae (fold increase in extracellular AK activity)) of 0.8, a fold induction at 50 µM (P. aeruginosa; planktonic, […], read-out: AK-based Prestwick Library Screening Results, P. aeruginosa (fold increase in extracellular AK activity)) of 1 and a fold induction at 50 µM ([2]; planktonic, […], read-out: AK-based Prestwick Library Screening Results, A. baumannii (fold increase in extracellular AK activity)) of 0.8. For the same compound, the fold induction at 50 µM (E. coli; planktonic, […], read-out: AK-based Prestwick Library Screening Results, E. coli (fold increase in extracellular AK activity)) was 1.1.
